Results published in the NIST ThermoML archive (doi:10.1021/je049688b).
± gives the expanded uncertainty stated by the source.

Conditions: Liquid, Ebulliometric method (Recirculating still)

vapor or sublimation pressure (337.75 K) | SMILES | vapor or sublimation pressure (329.35 K)
101 ± 1.3 kPa | CO [methanol] | 
 | CC(C)=O [acetone] | 101 ± 1.3 kPa
